Read-outs that look alike come from different tables or passages of the source.
Assays:
Daphnia sp. = settings: for Classification (aquatic toxicity): based on Daphnia 48 hours EC50
Fish = experiment: Experimental fish 96-hour acute toxicity (values in brackets in Table 4); format: in vivo; settings: experimental result (value in brackets)

Q: For `CC(C)(C)NCCOCCOCCNC(C)(C)C` [D, Bis-(t-butylamino ethoxy)ethane (bis-(t-butylamino)triethylene glycol)], which “Classification (aquatic toxicity)” value (Daphnia sp.) is on record?
A: Harmful to aquatic

Q: What does the source list for `COCCOCCOCCNC(C)(C)C` [B, Methoxyethoxyethoxyethanol-tert-butylamine]?
A: Classification (aquatic toxicity) (Daphnia sp.): No classification; Daphnia Experimental, 48 hours, EC50 (Daphnia sp.; experimental, 48 hours): EC50 > 100 mg/l; Biodegradability (day 0, 20° C.): 0; Biodegradability (day 1, 20° C.): 0.00; Biodegradability (day 2, 20° C.): 0.20; Biodegradability (day 3, 20° C.): 0.30; Biodegradability (day 4, 20° C.): 0.60; Biodegradability (day 5, 20° C.): 1.02; Biodegradability (day 6, 20° C.): 1.54; Biodegradability (day 7, 20° C.): 2.09; Biodegradability (day 8, 20° C.): 3.00; Biodegradability (day 9, 20° C.): 3.81; Biodegradability (day 10, 20° C.): 1.89; Biodegradability (day 11, 20° C.): 3.82; Biodegradability (day 12, 20° C.): 4.04; Biodegradability (day 13, 20° C.): 4.70; Biodegradability (day 14, 20° C.): 5.70; Biodegradability (day 15, 20° C.): 6.03; Biodegradability (day 16, 20° C.): 6.56; Biodegradability (day 17, 20° C.): 7.14; Biodegradability (day 18, 20° C.): 7.65; Biodegradability (day 19, 20° C.): 9.52; Biodegradability (day 20, 20° C.): 7.55; Biodegradability (day 21, 20° C.): 7.55; Biodegradability (day 22, 20° C.): 7.55; Biodegradability (day 23, 20° C.): 7.55; Biodegradability (day 24, 20° C.): 7.55; Biodegradability (day 25, 20° C.): 7.55; Biodegradability (day 26, 20° C.): 7.55; Biodegradability (day 27, 20° C.): 7.55; Biodegradability (day 28, 20° C.): 7.55

Q: Which results are given for “Ethoxyethanol-tert-butylamine (tert-butylamino-ethoxy-ethanol)”?
A: Classification (aquatic toxicity) (Daphnia sp.): Harmful to aquatic; Daphnia 48-hour LC50 (Daphnia sp.; experimental result (value in brackets)): 31.6 mg/L; Biodegradability (day 0, 20° C.): 0; Biodegradability (day 1, 20° C.): 0.05; Biodegradability (day 2, 20° C.): 0.00; Biodegradability (day 3, 20° C.): 0.00; Biodegradability (day 4, 20° C.): 0.00; Biodegradability (day 5, 20° C.): 0.00; Biodegradability (day 6, 20° C.): 0.00; Biodegradability (day 7, 20° C.): 0.06; Biodegradability (day 8, 20° C.): 1.68; Biodegradability (day 9, 20° C.): 3.34; Biodegradability (day 10, 20° C.): 0.47; Biodegradability (day 11, 20° C.): 0.56; Biodegradability (day 12, 20° C.): 0.76; Biodegradability (day 13, 20° C.): 0.91; Biodegradability (day 14, 20° C.): 1.04; Biodegradability (day 15, 20° C.): 1.16; Biodegradability (day 16, 20° C.): 1.33; Biodegradability (day 17, 20° C.): 1.51; Biodegradability (day 18, 20° C.): 1.56; Biodegradability (day 19, 20° C.): 1.58; Biodegradability (day 20, 20° C.): 1.71; Biodegradability (day 21, 20° C.): 1.89; Biodegradability (day 22, 20° C.): 2.00; Biodegradability (day 23, 20° C.): 1.95; Biodegradability (day 24, 20° C.): 2.00; Biodegradability (day 25, 20° C.): 2.06; Biodegradability (day 26, 20° C.): 2.06; Biodegradability (day 27, 20° C.): 2.06; Biodegradability (day 28, 20° C.): 2.06; Fish 96-hour LC50 (Fish): 225 mg/L
